Test results taken from US20240368115A1, “REGULATOR CONTAINING TRICYCLIC DERIVATIVE, PREPARATION METHOD THEREFOR AND APPLICATION THEREOF” (SHUJING BIOPHARMA CO., LTD, priority 2021, published 2024).
Like-named read-outs stand apart in the source and are kept apart here.

Key:
5-HT1A receptor = target: T1, 5-HT1A receptor (Homo sapiens, UniProt P08908); assay: 5-HT1A receptor cAMP agonist test; type: cell-based; details: HEK293 cell strain stably expressing 5-HT1A receptor; for EC50: cAMP, forskolin 2.5×10^−7 M; for 5-HT1A Max Act %: positive control serotonin 10^−6 M
T1 construct: expressed in transfected cells
T1 sequence (P08908 1-422): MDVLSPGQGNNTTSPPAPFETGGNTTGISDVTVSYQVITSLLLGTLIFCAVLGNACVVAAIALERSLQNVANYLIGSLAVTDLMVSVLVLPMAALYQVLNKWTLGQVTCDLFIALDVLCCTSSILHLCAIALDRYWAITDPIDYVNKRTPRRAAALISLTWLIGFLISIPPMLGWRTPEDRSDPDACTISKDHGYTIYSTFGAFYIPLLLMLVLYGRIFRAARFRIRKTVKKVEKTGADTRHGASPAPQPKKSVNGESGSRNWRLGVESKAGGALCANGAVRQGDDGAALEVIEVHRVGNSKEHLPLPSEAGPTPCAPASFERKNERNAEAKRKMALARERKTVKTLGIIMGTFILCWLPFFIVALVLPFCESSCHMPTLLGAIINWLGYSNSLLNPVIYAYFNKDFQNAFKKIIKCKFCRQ
Source text: • cAMP detection kit was purchased from Cisbio; an HEK293 cell strain stably expressing 5-HT1A receptor was constructed by Shanghai Shujing Biopharma Co., Ltd.; serotonin, forskolin, and IBMX were purchased from Sigma; ProxiPlate-384 well plates were purchased from PerkinElmer; HBSS was purchased from Thermo Fisher Scientific.
(§1) • (1) The cultured cells were digested with trypsin, and the cell suspension was washed with HBSS buffer after the digestion was terminated. The medium was removed by centrifugation at 200×g. The pellet was resuspended in an appropriate amount of experimental buffer, and 20 μL of cell suspension was counted using a cell counter and diluted to 0.4×10^6 cells/mL. • (2) 5 μL of cell suspension was added to a ProxiPlate-384 well plate (2×10^3 cells/well). • (3) Test compounds were serially diluted in an experimental buffer, and 5 μL of the mixed solution was transferred to the reaction plate with Bravo.

D2S receptor = target: T2, D2S receptor (Homo sapiens, UniProt P14416); assay: D2S receptor cAMP agonist test; type: cell-based; details: HEK293 cell strain stably expressing D2S receptor; for EC50: cAMP, forskolin 5×10^−7 M; for D2S Max Act %: positive control dopamine 1×10^−7 M
T2 construct: expressed in transfected cells
T2 sequence (P14416 1-414 isoform P14416-2): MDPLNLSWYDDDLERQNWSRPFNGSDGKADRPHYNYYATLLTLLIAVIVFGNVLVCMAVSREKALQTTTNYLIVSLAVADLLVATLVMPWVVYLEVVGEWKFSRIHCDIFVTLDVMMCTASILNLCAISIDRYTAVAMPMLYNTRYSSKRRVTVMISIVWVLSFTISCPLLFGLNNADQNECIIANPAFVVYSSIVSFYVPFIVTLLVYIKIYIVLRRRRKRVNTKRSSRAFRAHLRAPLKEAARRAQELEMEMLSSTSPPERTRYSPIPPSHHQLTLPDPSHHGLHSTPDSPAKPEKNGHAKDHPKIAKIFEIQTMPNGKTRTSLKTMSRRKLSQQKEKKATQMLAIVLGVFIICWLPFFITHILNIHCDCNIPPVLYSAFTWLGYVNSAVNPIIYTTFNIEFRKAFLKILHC
Source text: cAMP detection kit was purchased from Cisbio; an HEK293 cell strain stably expressing D2S receptor was constructed by Shanghai Shujing Biopharma Co., Ltd.; dopamine, forskolin, and IBMX were purchased from Sigma; ProxiPlate-384 well plates were purchased from PerkinElmer; HBSS was purchased from Thermo Fisher Scientific.
as §1, with “0.6×10^6” for “0.4×10^6”, “(3×10^3” for “(2×10^3”

[1] = Pharmacokinetic test in mice; type: in vivo; details: oral intragastric, single dose 5 mg/kg, plasma, 5 mg/kg
Protocol: Male ICR mice were administered orally intragastrically, the plasma concentrations of the compounds of the present invention were measured in the mice, the PK parameters were calculated, and the pharmacokinetic evaluation was performed on the compounds of the present invention.
• (1) Test samples: the compounds of the examples of the present invention, self-made. • (2) Test animals: ICR mice, SPF grade, male, Xuzhou Medical University. • (3) Main test instruments:
Drug preparation: according to the weight of the weighed drug, the preparation volume was calculated. 5% of DMSO was added firstly. After the drug was fully dissolved, 95% of 20% aqueous PB-cyclodextrin solution was then added, and the mixture was mixed well for later use.
Administration route: oral intragastric administration. Frequency and duration of administration: single administration.
ICR mice were stratified according to body weight and then randomly divided into groups of 9 mice each, and the mice were fasted overnight prior to the test. The mice were separately administered orally intragastrically. 50 μL of blood was collected from the fundus vein of the mouse at 0 h, 0.083 h, 0.25 h, 0.5 h, 1 h, 2 h, 4 h, 8 h, 12 h, and 24 h (3 time points for each mouse) to a sample tube containing heparin sodium as an anticoagulant, and the tube was placed in wet ice and centrifuged at 4000 r·min^−1 for 10 min. The plasma was separated, and cryopreserved in a refrigerator at −80° C. for testing.
The concentrations of plasma samples were measured by high performance liquid chromatography-tandem mass spectrometry (LC-MS/MS). The retention times of the compounds and internal standard, chromatogram acquisitions, and integrals of chromatograms were processed using the software Analyst (AB SCIEX), and the data statistics were processed using the software Watson LIMS (Thermo Fisher Scientific) or Analyst (AB SCIEX). The concentration of plasma was processed using a non-compartmental model of the pharmacokinetic software WinNonlin™ Version 6.3 (Pharsight, Mountain View, CA), and pharmacokinetic parameters were calculated by a linear log-trapezoidal method.

5-HT2A receptor = 5-HT2A receptor (Homo sapiens, UniProt P28223); assay: Calcium flux test for 5-HT2A receptor; type: cell-based; details: CHO cell strain stably expressing 5-HT2A receptor; for IC50: calcium flux, antagonism of serotonin; for 5-HT2A Max Inh %: positive control ketanserin 10^−7 M
Chain of 5-HT2A receptor (P28223 whole entry): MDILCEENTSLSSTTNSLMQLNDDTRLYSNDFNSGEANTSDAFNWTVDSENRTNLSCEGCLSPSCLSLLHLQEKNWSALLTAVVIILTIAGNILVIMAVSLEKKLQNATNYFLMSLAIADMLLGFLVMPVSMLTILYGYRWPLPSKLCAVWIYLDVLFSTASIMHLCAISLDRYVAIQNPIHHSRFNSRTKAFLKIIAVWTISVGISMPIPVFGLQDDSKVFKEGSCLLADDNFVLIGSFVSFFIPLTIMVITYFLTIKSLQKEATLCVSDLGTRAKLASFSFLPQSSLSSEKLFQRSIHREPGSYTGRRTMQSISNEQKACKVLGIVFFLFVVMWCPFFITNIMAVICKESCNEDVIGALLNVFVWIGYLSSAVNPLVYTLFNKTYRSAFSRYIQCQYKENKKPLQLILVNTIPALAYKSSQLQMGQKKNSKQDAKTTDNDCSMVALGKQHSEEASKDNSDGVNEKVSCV
Protocol: • Fluo-4 calcium flux detection kit was purchased from Invitrogen; a CHO cell strain stably expressing 5-HT2A receptor was purchased from PerkinElmer; serotonin was purchased from Sigma; ketanserin was purchased from Targetmol; polylysine-coated 384-well plates and 384-well compound plates were purchased from Greiner Bio-One. Molecular Device FLIPR, Agilent Bravo liquid workstation, and Countstar BioTech cell counter.
• (1) The cryopreserved cells were rapidly thawed in a water bath at 37° C., and the cells were resuspended in a plating medium. The cryopreservation solution was removed by centrifugation at 200×g. The pellet was resuspended in an appropriate amount of plating medium, 20 μL of cell suspension was counted using a cell counter, and the cell density was diluted to 1×10^6 cells/mL. • (2) 20 μL of cell suspension was added to a polylysine-coated 384-well plate (2×10^4 cells/well). • (3) The cell plate was incubated in a 37° C./5% CO2 incubator for 16-20 h.
• (1) The cell plate was taken out from the incubator and centrifuged at 100×g to remove the medium. 20 μL of experimental buffer was added, and then 20 μL of 2× fluorescent probe solution was added. […] The cell plate and agonist positive compound plate were placed into the FLIPR instrument, the detection program was run, 10 μL of the diluted compound was transferred from the agonist compound plate to the cell plate, and the fluorescence signal was read. […] The cell plate and test compound plate were placed in the FLIPR instrument, the detection program was run, and 10 μL of the diluted compound was transferred from the test compound plate to the cell plate. […] The test compound plate was then taken out, and the agonist positive compound plate with 6×EC50 concentration was placed.
Inhibition rate (Inhibition %)=(negative control reading value−compound reading value)/(negative control reading value−positive control reading value)×100%

D2L receptor = target: T3, D2L receptor (Homo sapiens, UniProt P14416); assay: D2L receptor cAMP agonist test; type: cell-based; details: HEK293 cell strain stably expressing D2L receptor; for EC50: cAMP, forskolin 0.5 μM; for D2L Max Act %: positive control dopamine 1 μM
T3 construct: expressed in transfected cells
T3 sequence (P14416 whole entry): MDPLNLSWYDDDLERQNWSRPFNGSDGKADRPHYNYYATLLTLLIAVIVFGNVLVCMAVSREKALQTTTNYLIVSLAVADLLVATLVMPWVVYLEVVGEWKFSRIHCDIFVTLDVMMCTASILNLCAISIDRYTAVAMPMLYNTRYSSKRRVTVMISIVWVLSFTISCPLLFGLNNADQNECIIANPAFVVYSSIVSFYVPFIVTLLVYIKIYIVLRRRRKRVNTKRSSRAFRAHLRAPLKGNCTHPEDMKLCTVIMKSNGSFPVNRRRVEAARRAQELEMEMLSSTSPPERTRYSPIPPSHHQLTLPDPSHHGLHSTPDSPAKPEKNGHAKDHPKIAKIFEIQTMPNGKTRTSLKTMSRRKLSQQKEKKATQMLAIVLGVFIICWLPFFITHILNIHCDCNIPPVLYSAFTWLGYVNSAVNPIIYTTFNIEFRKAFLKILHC
Protocol: • cAMP detection kit was purchased from Cisbio; an HEK293 cell strain stably expressing D2L receptor was constructed by Shanghai Shujing Biopharma Co., Ltd.; dopamine, forskolin, and IBMX were purchased from Sigma; ProxiPlate-384 well plates were purchased from PerkinElmer; HBSS was purchased from Thermo Fisher Scientific.
• (1) The cryopreserved cells were thawed in a water bath at 37° C., the cell suspension was resuspended in HBSS buffer, and the mixed solution was centrifuged at 750 rpm for 5 min to remove the medium. The pellet was resuspended in an appropriate amount of experimental buffer, and an appropriate amount of cell suspension was diluted to 0.4×10^6 cells/mL. • (2) 5 μL of cell suspension was added to a ProxiPlate-384 well plate (2×10^3 cells/well), and the plate was centrifuged at 1000 rpm for 1 min. • (3) Test compounds were serially diluted in an experimental buffer, and 5 μL of the mixed solution was transferred to the reaction plate with Bravo.

[2] = male, ICR, mouse, po, read-out: AUC(0-inf)
[3] = male, ICR, mouse, po, read-out: Cmax

Structure (SMILES) | EC50 (5-HT1A receptor) | 5-HT1A Max Act % (5-HT1A receptor) | EC50 (D2S receptor) | D2S Max Act % (D2S receptor) | AUC(0-inf) ([1]; male ICR mice) | Cmax ([1]; male ICR mice) | t1/2 ([1]; male ICR mice) | IC50 (5-HT2A receptor) | 5-HT2A Max Inh % (5-HT2A receptor) | EC50 (D2L receptor) | D2L Max Act % (D2L receptor) | half-life ([1]; male, ICR, mouse, po) | AUC(0-inf) [1, 2] | Cmax [1, 3]
O=C1Nc2cc(OCCCCN3CCN(c4cccc5c4CCO5)CC3)ccc2C2CC12 (single isomer, unassigned) [Example 45-P2] | 200 nM | 52.8% | 0.89 nM | 111.5% | 4083.7 ng·h/mL | 660.0 ng/mL | 3.0 h | 411 nM | 100.0% | 0.62 nM | 41.5% |  |  | 
O=C1Nc2cc(OCCCCN3CCN(c4cccc5c4CC(F)(F)C5)CC3)ccc2C2CC12 (stereo not shown) [Example 46, 5-(4-(4-(2,2-Difluoro-2,3-dihydro-1H-inden-4-yl)piperazin-1-yl)butoxy)-1,1a,3,7b-tetrahydro-2H-cyclopropa[c]quinolin-2-one] | 354 nM | 62.6% | 0.93 nM | 114.3% |  |  |  | 2340 nM | 91.6% | 0.4 nM | 43.4% | 15.2 h | 17700 ng·h/mL | 1200 ng/mL
O=C1Nc2cc(OCCCCN3CCN(c4cccc(Cl)c4Cl)CC3)ccc2[C@@H]2C[C@H]12 (single isomer, unassigned) [Example 1-P2] | 1210 nM | 45.2% | 1.49 nM | 113.8% |  |  |  | 737 nM | 100.3% | 0.61 nM | 33.1% | 10.8 h | 7100 ng·h/mL | 430 ng/mL
O=C1COc2ccc(OCCCCN3CCN(c4cccc(Cl)c4Cl)CC3)cc2N1 [RP5063, reference compound] | 1880 nM | 31.6% |  |  |  |  |  | 9130 nM | 67.6% |  |  | 3.8 h | 1560 ng·h/mL | 195 ng/mL
O=C1Nc2cc(OCCCCN3CCN(c4cccc5sccc45)CC3)ccc2C2CC12 (single isomer, unassigned) [Example 42-P1] | 143 nM | 62.9% | 1 nM | 102.0% |  |  |  | 1950 nM | 100.5% | 0.99 nM | 29.6% | 4.1 h | 8000 ng·h/mL | 1180 ng/mL
O=C1Nc2cc(OCCCCN3CCN(c4cccc5c4OCC5)CC3)ccc2C2CC12 (single isomer, unassigned) [Example 44-P2] | 7.05 nM | 48.0% | 0.92 nM | 89.1% |  |  |  | 290 nM | 99.7% | 0.22 nM | 53.9% |  |  | 
O=C1CCc2ccc(OCCCCN3CCN(c4cccc(Cl)c4Cl)CC3)cc2N1 [Aripiprazole, reference compound] |  | 43.8% |  |  |  |  |  |  | 86.0% |  |  | 3.5 h | 1040 ng·h/mL | 180 ng/mL
